Data taken from PubChem BioAssay AID720715 (Broad Institute, 2013).
Results filed as inconclusive are left out. Activity calls are given as the source filed them. The rule behind the calls is not given here.

Columns and labels:
[1] = viability loss in HEK293 kidney cells – cell-based, plate reader, dry powder, set 2, cytotoxicity control, dose response (AID 720715); settings: HEK293 cytotoxicity, plate reader
[2] = test system: HEK293 cytotoxicity, plate reader; test: as above

| SMILES | activity change, negative = cytotoxicity ([1]; at 26 µM (top of the series)) | AC50 [2] | further results |
| --- | --- | --- | --- |
| Fc1ccc(-n2nnnc2-c2cnc(-c3cccs3)nc2C(F)(F)F)cc1 | -31.8% (inactive) |  |  |
| O=C1CSc2ccc(C(=O)Nc3cccc(S(=O)(=O)Nc4ccc(Br)cc4)c3)cc2N1 |  | 19.3 µM |  |
| CN(C(=O)COc1ccccc1C(=O)NCCOc1ccccc1)c1ccccc1 |  | 18.1 µM |  |
| CN(C)c1nc(-c2ccccn2)nnc1-c1ccccc1 |  | 5.55 µM |  |
| COc1ccc(NC(=O)c2nc(S(=O)(=O)Cc3cccc(C)c3)ncc2Cl)c(OC)c1 | -19.6% (inactive) |  |  |
| Cc1cc(N2CCCC2=O)cc(C)c1S(=O)(=O)NCCOc1ccc(C(C)(C)C)cc1 | 57.1% (inactive) |  |  |
| O=C(c1nnsc1S(=O)c1ccc(Cl)cc1)N1CCOCC1 (stereo unspecified) |  |  | activity change, negative = cytotoxicity ([1]; at 12 µM (top of the series)): 0.296% (inactive) |
| Nc1nonc1C(=O)NCCNCc1cc(Br)ccc1OCc1ccc(F)cc1 | -59.1% (inactive) |  |  |
| COc1ccccc1N1CCN(c2ncc(C(=O)N3CCN(c4cccc(Cl)c4)CC3)c3ccccc23)CC1 | -7.71% (inactive) |  |  |
| CC(C)[C@H](NC(=O)OC(C)(C)C)c1nnc(S(=O)(=O)Cc2c(F)cccc2Cl)o1 | -61.3% (inactive) |  |  |
| CN(CC(=O)Nc1cccc(S(=O)(=O)N2CCOCC2)c1)CC(=O)Nc1ccc(Cl)c(C(F)(F)F)c1 | -50% (inactive) |  |  |
| CCOC(=O)c1ccc(NC(=O)Cn2ncc(Cl)c(Cl)c2=O)cc1 |  | 15.1 µM |  |
| CC(=O)N1CCN(C(=O)CCc2cc(C(C)(C)C)c(O)c(C(C)(C)C)c2)CC1 | -13.7% (inactive) |  |  |
| O=c1c2ccccc2nc2n1C(CSCc1ccc(Cl)cc1Cl)CS2 (stereo unspecified) | -9.98% (inactive) |  |  |
| CCCOc1ccccc1C1CC(=O)Nc2cc3c(cc21)OCO3 (stereo unspecified) | -19.2% (inactive) |  |  |
| COc1ccc(NS(=O)(=O)c2ccc(C(=O)N3CCCCCC3)cc2)cc1 | -33.4% (inactive) |  |  |
| COc1cc2ncnc(N[C@H](C)c3ccccc3)c2cc1OC | 70.1% (inactive) |  |  |
| COc1ccc(Nc2nc(N3CCCCC3)c3ccccc3n2)cc1 |  | 23.8 µM |  |
| Cc1ccc2cc(CN(CC3CCCO3)C(=O)NC3CCCCC3)c(=O)[nH]c2c1C (stereo unspecified) | 5.24% (inactive) |  |  |
| CC(C)(C)NC(=O)CSc1nc2ccc(NC(=O)CSc3nnnn3Cc3ccccc3)cc2s1 |  | 15.9 µM |  |
| CCOC(=O)C1CCN(C(=O)c2ccc(OCC(=O)Nc3cccc(C(F)(F)F)c3)c(OC)c2)CC1 |  | 5.01 µM |  |
| CCOC(=O)C1(Cc2ccc(Cl)cc2)CCN(C(C)Cc2ccc(O)c(OC)c2)CC1 (stereo unspecified) | -31.7% (inactive) |  |  |
| COc1cc(CN2CCc3ccccc3C2)ccc1O |  | 14.7 µM |  |
| CCCc1nnc(NC(=O)c2nc(S(=O)(=O)Cc3ccc(C)cc3)ncc2Cl)s1 | -2.77% (inactive) |  |  |
| Cc1cc2c(cc(C(=O)N3CCC(C(=O)NC4CCCC4)CC3)n2Cc2c(F)cccc2Cl)o1 | -24.5% (inactive) |  |  |
| CC(=O)Nc1cccc(NC(=O)CSc2ncc(-c3ccc(Cl)cc3)n2Cc2ccco2)c1 | -4.47% (inactive) |  |  |
